Assay results: ChEMBL document CHEMBL1201862, “PubChem BioAssay data set” (2004)
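Values below derive from 48-hour exposures of cells grown in 96-well plates, with endpoints linearly interpolated between the two concentrations bracketing the appropriate inhibition level. At the GI50, growth is halved.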 Calls of active or inactive are those of the source. No stated cut-off is given here; in the data, active = GI50 up to about 1.1 µM and inactive = higher.

Experiments:
Test in all cases: growth of human tumour cells (NCI), 48 h
786-0 = system: 786-0
UACC-257 = system: UACC-257
SK-MEL-2 = system: SK-MEL-2
CAKI-1 = system: CAKI-1
COLO 205 = system: COLO 205
PC-3 = system: PC-3
NCI-H460 = system: NCI-H460
HCT-15 = system: HCT-15
RPMI-8226 = system: RPMI-8226
K562 = system: K562
OVCAR-8 = system: OVCAR-8
MCF7 = system: MCF7
A498 = system: A498
SK-MEL-28 = system: SK-MEL-28
OVCAR-3 = system: OVCAR-3
HOP-62 = system: HOP-62
NCI-H226 = system: NCI-H226
TK-10 = system: TK-10
MOLT-4 = system: MOLT-4
T47D = system: T47D

| SMILES | GI50 (786-0) | GI50 (UACC-257) | GI50 (SK-MEL-2) | GI50 (CAKI-1) | GI50 (COLO 205) | GI50 (PC-3) | GI50 (NCI-H460) | GI50 (HCT-15) | GI50 (RPMI-8226) | GI50 (K562) | GI50 (OVCAR-8) | GI50 (MCF7) | GI50 (A498) | GI50 (SK-MEL-28) | GI50 (OVCAR-3) | GI50 (HOP-62) | GI50 (NCI-H226) | GI50 (TK-10) | GI50 (MOLT-4) | GI50 (T47D) |
| --- | --- | --- | --- | --- | --- | --- | --- | --- | --- | --- | --- | --- | --- | --- | --- | --- | --- | --- | --- | --- |
| O=C(Nc1ccc([As](=O)(O)O)cc1)Nc1cccc(Cl)c1Cl | 46.1 µM (inactive) | > 100 µM (inactive) | > 100 µM (inactive) | > 100 µM (inactive) | > 100 µM (inactive) | 83.9 µM (inactive) | > 100 µM (inactive) | > 100 µM | > 100 µM (inactive) | 97.5 µM (inactive) | 46.2 µM (inactive) | > 100 µM (inactive) | > 100 µM (inactive) | > 100 µM (inactive) | > 100 µM (inactive) | 70 µM (inactive) | > 100 µM (inactive) | 89.1 µM (inactive) | – | – |
| COC(=O)[C@@H]1C[C@@H]2c3ccccc3N(S(=O)(=O)c3ccccc3)[C@@H]2N1C(=O)OC | > 100 µM (inactive) | > 100 µM (inactive) | > 100 µM (inactive) | > 100 µM (inactive) | > 100 µM (inactive) | > 100 µM (inactive) | > 100 µM (inactive) | > 100 µM | > 100 µM (inactive) | > 100 µM (inactive) | > 100 µM (inactive) | > 100 µM (inactive) | – | > 100 µM (inactive) | > 100 µM (inactive) | > 100 µM (inactive) | > 100 µM (inactive) | > 100 µM (inactive) | > 100 µM (inactive) | – |
| COc1ccc(CCCCNCc2cccc(CNCCCCc3ccc(OC)cc3)c2)cc1 | 2.1 µM (inactive) | 2.59 µM (inactive) | 1.91 µM (inactive) | 1.8 µM (inactive) | 2.18 µM (inactive) | 1.79 µM (inactive) | 2.39 µM (inactive) | 1.77 µM | 2.67 µM (inactive) | 1.36 µM (inactive) | 1.8 µM (inactive) | 1.54 µM (inactive) | – | 1.84 µM (inactive) | 1.88 µM (inactive) | 2.19 µM (inactive) | 0.385 µM (active) | 2.07 µM (inactive) | 2.18 µM (inactive) | 2.06 µM (inactive) |
| O=C(O)c1ccc2c(c1)Cc1cc([N+](=O)[O-])ccc1-2 | > 100 µM (inactive) | 44.1 µM (inactive) | > 100 µM (inactive) | 71.4 µM (inactive) | > 100 µM (inactive) | – | > 100 µM (inactive) | > 100 µM | 0.546 µM (active) | 73.5 µM (inactive) | 59.7 µM (inactive) | > 100 µM (inactive) | 44 µM (inactive) | > 100 µM (inactive) | > 100 µM (inactive) | > 100 µM (inactive) | 52.1 µM (inactive) | 61 µM (inactive) | > 100 µM (inactive) | > 100 µM (inactive) |
| CCc1n[nH]c(=O)n1NC(=O)c1ccccc1C(=O)O | > 100 µM (inactive) | > 100 µM (inactive) | > 100 µM (inactive) | – | > 100 µM (inactive) | > 100 µM (inactive) | – | > 100 µM | > 100 µM (inactive) | > 100 µM (inactive) | > 100 µM (inactive) | > 100 µM (inactive) | – | > 100 µM (inactive) | > 100 µM (inactive) | > 100 µM (inactive) | – | > 100 µM (inactive) | > 100 µM (inactive) | – |
| O=c1oc2ccccc2cc1-c1nnc(-c2ccccc2)s1 | 17.3 µM (inactive) | > 100 µM (inactive) | > 48.8 µM (inactive) | > 64.9 µM (inactive) | > 53 µM (inactive) | > 76.6 µM (inactive) | 28.1 µM (inactive) | 6.73 µM | > 55.7 µM (inactive) | 9.89 µM (inactive) | 22.1 µM (inactive) | 7.67 µM (inactive) | 15.1 µM (inactive) | 98.6 µM (inactive) | 14.5 µM (inactive) | 16.1 µM (inactive) | > 56 µM (inactive) | > 36.6 µM (inactive) | 19.1 µM (inactive) | – |
| Cc1cc(S(=O)(=O)Nc2nc3cc(-c4ccc(Cl)cc4)sc3c(=O)n2N)c(S)cc1Cl | 45.9 µM (inactive) | 65 µM (inactive) | 75.2 µM (inactive) | > 100 µM (inactive) | 17 µM (inactive) | 63.2 µM (inactive) | 36.6 µM (inactive) | 45.6 µM | > 100 µM (inactive) | 32.7 µM (inactive) | 50.2 µM (inactive) | 44.7 µM (inactive) | – | 36.5 µM (inactive) | > 100 µM (inactive) | 36.3 µM (inactive) | – | 73.6 µM (inactive) | 21.3 µM (inactive) | 31.3 µM (inactive) |
| CC(C)CCNC(=O)c1ccc(CNC(=O)/C=C/c2ccc(-c3ccccc3[N+](=O)[O-])o2)cc1 | 28.6 µM (inactive) | 47 µM (inactive) | 95.7 µM (inactive) | 46.3 µM (inactive) | > 100 µM (inactive) | > 100 µM (inactive) | > 100 µM (inactive) | > 100 µM | 96.8 µM (inactive) | 82.6 µM (inactive) | 26.6 µM (inactive) | 68.5 µM (inactive) | – | 16.6 µM (inactive) | 94.8 µM (inactive) | 24.3 µM (inactive) | 21.9 µM (inactive) | – | > 100 µM (inactive) | 12.2 µM (inactive) |
| NC(=O)c1cn(C2OC(CO)C(O)C2O)c2nc[n+]([O-])c(N)c12 (configuration not stated) | 0.126 µM (active) | 0.244 µM (active) | 0.157 µM (active) | 0.0497 µM (active) | 0.201 µM (active) | 0.178 µM (active) | 0.446 µM (active) | 0.0735 µM | 0.266 µM (active) | 0.34 µM (active) | 0.094 µM (active) | 0.2 µM (active) | – | 0.341 µM (active) | 0.125 µM (active) | 0.133 µM (active) | 0.211 µM (active) | 0.0324 µM (active) | 0.104 µM (active) | 0.103 µM (active) |
| Cc1cccc(C)c1N1C(=O)C(=O)C(c2nc3ccccc3s2)/C(=N/NC(=O)c2ccccc2O)C1=O (configuration not stated) | 13.2 µM (inactive) | 23.3 µM (inactive) | 11 µM (inactive) | 3.07 µM (inactive) | 27.4 µM (inactive) | – | 17.7 µM (inactive) | 14.7 µM | 12.7 µM (inactive) | 3.8 µM (inactive) | 21 µM (inactive) | – | 28.6 µM (inactive) | 28 µM (inactive) | 18.7 µM (inactive) | 9.18 µM (inactive) | 13.7 µM (inactive) | 25.1 µM (inactive) | 8.89 µM (inactive) | – |
| CC1(N2CCOCC2)CC2C(=[N+]1[O-])CCC/C2=N/O (configuration not stated) | > 100 µM (inactive) | > 100 µM (inactive) | > 100 µM (inactive) | > 100 µM (inactive) | – | > 100 µM (inactive) | > 100 µM (inactive) | > 100 µM | – | > 100 µM (inactive) | > 100 µM (inactive) | > 100 µM (inactive) | – | > 100 µM (inactive) | > 100 µM (inactive) | > 100 µM (inactive) | > 100 µM (inactive) | > 100 µM (inactive) | > 100 µM (inactive) | > 100 µM (inactive) |
| Nc1nc(N)c2cc(S(=O)(=O)c3ccc4ccccc4c3)ccc2n1 | 3.66 µM (inactive) | 0.142 µM (active) | 43.4 µM (inactive) | 4.83 µM (inactive) | – | 1.58 µM (inactive) | 0.573 µM (active) | 3.93 µM | > 100 µM (inactive) | 0.541 µM (active) | 1.34 µM (inactive) | – | – | > 100 µM (inactive) | > 100 µM (inactive) | 4.63 µM (inactive) | – | > 100 µM (inactive) | – | 1.46 µM (inactive) |
